These results are taken from patent publication US7951815B2, “Substituted 1,4,8-triazaspiro [4,5]decan-2-one compounds” (Gruenenthal GmbH, priority 2004, dated 2011).

For test [1], the system named is batrachotoxin (BTX) binding site of the sodium channel. Put plainly: Affinity to the batrachotoxin (BTX) binding site of the sodium channel. The conditions noted are these: Table II; rat cerebrocortex synaptosomes; test concentration not given.
Another test concerns the target human μ-opioid receptor (Homo sapiens, UniProt P35372). Put plainly: Affinity to the human μ-opioid receptor ([3H]-naloxone displacement). The conditions noted are these: read-out: μ (Naloxone), 1 μM, % inhibition.
The next test concerns male NMRI mice. The experiment in a line: Analgesic test using the phenylquinone-induced writhing test on mice. The format is in vivo. Particulars: 10 mg/kg intravenous. The method, then:
The analysis of analgesic activity is carried out using the phenylquinone-induced writhing assay in mice, modified as described in the article by I. C. Hendershot and J. Forsaith ((1959) in J. Pharmacol. Exp. Ther. 125, 237-240).
For the present purpose, male NMRI mice are used having a weight of from 25 to 30 g. Groups of 10 animals per substance dose receive, 10 minutes after an intravenous dose of test substances, an intraperitoneal administration of 0.3 ml/mouse of a 0.02% strength aqueous solution of phenylquinone (phenylbenzoquinone, obtainable from Sigma, Deisenhofen; solution produced with the addition of 5% of ethanol and storage in a water bath at 45° C.). The animals are placed individually in observation cages. Using a pushbutton counter, the number of pain-induced stretching movements (so-called writhing reactions=straightening of the body accompanied by stretching of the rear extremities) was counted over a period of from 5 to 20 minutes following the administration of phenylquinone. The control is provided by animals receiving only physiological saline. All substances are tested using the standard dosage of 10 mg/kg.
In general terms: An intraperitoneal irritant provokes the stretching counted in writhing tests.

For a further test, the target named is T1, 5-HT transporter (Rattus norvegicus, UniProt P31652).
T1 construct: synaptosomes of rat brain areas are freshly isolated; from tissue; host or cells: rat brain synaptosomes (P2 fraction) from marrow and pons
Put plainly: Inhibition of 5-HT uptake in rat brain synaptosomes. The conditions noted are these: read-out: Uptake 5-HT, % inhibition; Table II; rat, 1 μM. The format is biochemical.

Sequence of human μ-opioid receptor (P35372 whole entry): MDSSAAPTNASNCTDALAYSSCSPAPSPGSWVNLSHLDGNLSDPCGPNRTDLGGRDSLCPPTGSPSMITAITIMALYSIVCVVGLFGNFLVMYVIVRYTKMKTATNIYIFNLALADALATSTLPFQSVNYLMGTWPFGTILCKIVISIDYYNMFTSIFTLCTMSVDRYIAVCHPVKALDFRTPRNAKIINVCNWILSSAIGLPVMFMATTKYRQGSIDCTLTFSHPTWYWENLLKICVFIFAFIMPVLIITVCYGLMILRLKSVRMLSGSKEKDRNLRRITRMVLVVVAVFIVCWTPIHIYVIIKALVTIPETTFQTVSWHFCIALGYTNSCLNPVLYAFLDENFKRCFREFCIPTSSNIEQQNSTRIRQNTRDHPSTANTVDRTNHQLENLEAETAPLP
T1 sequence (P31652 whole entry): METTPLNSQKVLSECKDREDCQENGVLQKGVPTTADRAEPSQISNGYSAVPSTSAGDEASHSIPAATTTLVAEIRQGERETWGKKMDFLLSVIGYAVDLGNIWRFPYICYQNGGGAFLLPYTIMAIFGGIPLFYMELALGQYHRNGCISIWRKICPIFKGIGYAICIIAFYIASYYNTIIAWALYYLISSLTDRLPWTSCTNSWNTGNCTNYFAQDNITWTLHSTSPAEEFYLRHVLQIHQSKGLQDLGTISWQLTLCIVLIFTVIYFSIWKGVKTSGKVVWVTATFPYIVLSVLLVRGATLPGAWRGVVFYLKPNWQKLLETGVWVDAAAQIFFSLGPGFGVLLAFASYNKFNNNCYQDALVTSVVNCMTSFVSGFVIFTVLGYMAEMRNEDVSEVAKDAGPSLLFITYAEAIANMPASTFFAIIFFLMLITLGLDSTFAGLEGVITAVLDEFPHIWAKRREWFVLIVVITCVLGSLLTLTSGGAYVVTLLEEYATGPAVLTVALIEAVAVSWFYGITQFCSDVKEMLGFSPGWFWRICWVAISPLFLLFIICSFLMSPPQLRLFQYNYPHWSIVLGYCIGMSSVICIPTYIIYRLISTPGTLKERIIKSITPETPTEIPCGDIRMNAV
Procedure for human μ-opioid receptor: The receptor affinity to the human μ-opioid receptor is determined in a homogeneous batch in microtiter plates. For this purpose, dilution series of the substances to be tested are incubated at room temperature for 90 minutes in a total volume of 250 μL with a receptor membrane preparation (15-40 μg of protein/250 μL of incubation batch) of CHO-K1 cells which express the human μ-opioid receptor (RB-HOM receptor membrane preparation supplied by NEN, Zaventem, Belgium) in the presence of 1 nmol/L of the radioactive ligand [^3H]-naloxone (NET 719, supplied by NEN, Zaventem, Belgium), and of 1 mg of WGA-SPA beads (wheat germ agglutinin SPA beads supplied by Amersham/Pharmacia, Freiburg, Germany). As incubation buffer, 50 mmol/L of tris HCl supplemented with 0.05% (weight/volume) of sodium azide and with 0.06% (weight/volume) of bovine serum albumin is used. For determination of the nonspecific binding, 25 μmol/L of naloxone are added. On completion of the ninety-minute incubation time, the microtiter plates are centrifuged for 20 minutes at 1000 g and the radioactivity is measured in a β-counter (Microbeta-Trilux, supplied by PerkinElmer Wallac, Freiburg, Germany).
Based on the percentage displacement produced by different concentrations of the test substances, IC50 inhibitory concentrations are calculated which cause a 50 percent displacement of the radioactive ligand. As a result of recalculation using the Cheng-Prusoff relationship, the Ki values for the test substances can be obtained, as described in the publication of Y. Cheng, W. H. Prusoff, 1973, Biochem. Pharmacol., 22, pages 3099-3108.

Molecule `CCC(CC)C(=O)N1CCC2(CC1)N[C@@H](Cc1ccccc1)C(=O)N2Cc1ccccc1.Cl` [Example 25, 1,3-(S)-dibenzyl-8-(2-ethylbutyryl)-1,4,8-triazaspiro[4,5]decan-2-one hydrochloride] showed a BTX inhibition in test [1] of 47. Further, the inhibition at 1 µM on human μ-opioid receptor and at 5-HT transporter was 66% throughout. The “% Inhibition of the writhing reaction (Dosage in mg/kg intravenous)” value in the test on male NMRI mice is listed as 42 (10) %.

The term inhibition denotes how much of the control response was suppressed.
